The values that follow come from patent US20240376094A2, “SELECTIVE BCL-XL PROTAC COMPOUNDS AND METHODS OF USE” (Les Laboratoires Servier, priority 2021, published 2024).

Format in all cases: cell-based
For one test, the system named is NCI-H1650. The test can be described thus: CellTiter-Glo 3D proliferation assay, NCI-H1650 spheroids. Particulars: Homo sapiens, NCI-H1650, 120 h, 5 days; for Emax: read-out: NCI-H1650 Span (Amax). Put shortly: (§1)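 Both lines grown in RPMI-1640 + 10% FBS. COR-L105 plated flat at 1,000 cells/well overnight; NCI-H1650 grown as spheroids, 3,000 cells/well, 72 h. Compounds at 0.508 nM-10 μM final for 5 days, 37° C. ATP read by CellTiter-Glo (3D version for spheroids); IC50 from variable-slope fit normalized to untreated cells.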

A further test relates to COR-L105. Description: CellTiter-Glo proliferation assay, COR-L105. Particulars: Homo sapiens, COR-L105, 120 h, COR-L105, 5 days; for Emax: read-out: COR-L105 Span (max). Put shortly: as §1
A further test concerns the target T1, endogenous BCL-xL (Homo sapiens, UniProt Q07817).
T1 construct: endogenous in cells; host or cells: COR-L105 (ECACC No. 92031918); NCI-H1650 (ATCC No. CRL-5883)
Description: Degradation of endogenous BCL-xL in COR-L105 (ProteinSimple Jess). The settings on record: COR-L105, 24 h, COR-L105, dose 300 nM, read-out: % BCL-xL vs. Untreated, COR-L105. The method, then:
The BCL-xL degrader low molecular weight compounds were tested against two endogenous cancer cell lines: • COR-L105: ECACC No. 92031918 cultured in RPMI-1640+10% FBS • NCI-H1650: (ATCC No. CRL-5883 cultured in RPMI-1640+10% FBS
The ability of the BCL-xL degrader low molecular weight compounds to degrade endogenous BCL-xL was assessed using the ProteinSimple 2-40 kDa Jess Separation Module.
Cell lines were cultured in media that is optimal for their growth at 5% CO2, 37° C. in a tissue culture incubator. Prior to seeding for the degradation assay, the cells were split at least 2 days before the assay to ensure optimal growth density. On the day of seeding, adherent cells were lifted off tissue culture flasks using 0.25% trypsin. Cell viability and cell density were determined using a cell counter (Vi-Cell XR Cell Viability Analyzer, Beckman Coulter). Cells with higher than 85% viability were seeded for the assay.
The COR-L105 and the NCI-H1650 cell line were seeded in 6-well clear TC-treated multiple well plates (Costar® cat. #3516). Cells were seeded at a density of 2,000,000 cells per well in 2.5 mL of standard growth media. Plates were incubated at 5% CO2, 37° C. overnight in a tissue culture incubator. On the day of dosing, BCL-xL degrader low molecular weight compounds and a BCL-xL inhibitor control were prepared at 6× in standard growth media. The prepared drug treatments were then added to the cells resulting in a final concentration of 100-300 nM and a final volume of 3.0 mL per well. A control well of untreated cells was also included in the study. Each drug concentration was tested in singlet. Plates were incubated at 5% CO2, 37° C. for 24 hours in a tissue culture incubator.
After 24 hours, the adherent cells were lifted off tissue culture plates using 0.25% trypsin. Standard growth media was added to quench the trypsin and centrifuged for 5 minutes at 1500 rpm. Cell pellets were washed once with cold PBS and centrifuged for 5 minutes at 1500 rpm. Cells were then washed with 1 mL cold PBS and transferred to a 1.5 mL eppendorf tube. Cells were centrifuged for 10 minutes at ≥10,000 g at 4° C. in a benchtop mini-centrifuge. The entire supernatant was discarded and cells were resuspended thoroughly in 50 μL of RIPA lysis buffer, generated by the manufacturer's protocol (ProteinSimple, Cat. #CBS401: Lysis Kit—RIPA Buffer for Charge Assays). Lysates were incubated on ice for 30 minutes. Following incubation, lysates were spun in a benchtop mini-centrifuge for 15 minutes at full speed at 4° C. Supernatant was carefully transferred to a new eppendorf tube for downstream analysis.
Protein was quantified using a Pierce™ BCA Protein Assay Kit (ThermoFisher, cat #23225) following the manufacturer's instructions. A standard curve was prepared by adding 25 μL of each concentration of reference samples from a Pierce™ Bovine Serum Albumin Standard Pre-Diluted Set (ThermoFisher, cat #23208). Each reference sample was run in duplicate. Testing samples were prepared by diluting cell lysates 1:5 in UltraPure™ DNase/RNase-Free Distilled Water and tested in duplicates of 25 μL each. The BCA working reagent was prepared by addition of 50 parts of BCA Reagent A with 1 part of BCA Reagent B. For each testing well, 200 μL of BCA working reagent was added. The plate was incubated at 37° C. for 30 minutes. A SpectraMax M Series Multi-Mode Microplate Reader was used to measure the absorbance at 562 nm. A standard curve generated by the Pierce™ Bovine Serum Albumin Standard Pre-Diluted Set was used to normalize and calculate the BCA concentration of cell lysates. Only values that fell within the range of the standard curve were accepted for quantification.
The ProteinSimple 2-40 kDa Jess Separation Module was used to detect BCL-xL degradation in treated versus untreated lysates following the manufacturer's instructions (25-Capillary Cartridge, 8 pack, 2-40 kDa, cat #SM W012). […]

Test [1] relates to MOLT-4 cells. Description: MOLT-4 cell viability, MTT assay. The settings on record: Homo sapiens, MOLT-4, 48 h. Put shortly:
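MOLT-4 cells in RPMI 1640 with 10% FBS were exposed to compounds for 48 h at 9 concentrations (3.16-fold dilutions, triplicates). After 4 h with MTT and overnight SDS/HCl solubilisation, absorbance was read at 540 nm. IC50 came from four-parameter fits versus control, as the mean of ≥2 independent experiments.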
(In general: Tetrazolium assays rely on reduction of a dye to a coloured formazan, in cell work by metabolically active cells.)

For test [2], the system named is MOLT-4 cells. The test can be described thus: MOLT-4 cell viability, CTG assay. The settings on record: MOLT-4, 48 h. Put shortly:
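Viability read as total ATP luminescence (CTG) after 48 h compound treatment, 11 points at 5-fold spacing in triplicate, cells in RPMI 1640/10% FBS. IC50 is the concentration halving signal relative to control, four-parameter fit, averaged over at least 2 experiments.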

Another test deals with T2, Bcl-xL (Homo sapiens, UniProt Q07817).
T2 construct: Measured levels of Bcl-xL protein of HCT116 cells treated with the tested compounds; host or cells: HCT116
T2 sequence (Q07817 whole entry): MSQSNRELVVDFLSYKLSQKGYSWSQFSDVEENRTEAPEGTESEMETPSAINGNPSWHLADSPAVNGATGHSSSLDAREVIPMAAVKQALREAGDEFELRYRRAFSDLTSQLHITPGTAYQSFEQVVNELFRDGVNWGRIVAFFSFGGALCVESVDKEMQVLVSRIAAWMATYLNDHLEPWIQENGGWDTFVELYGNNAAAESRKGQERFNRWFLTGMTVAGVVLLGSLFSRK
Description: HCT116 Bcl-xL degradation, capillary-based immunoassay (WES). The essentials:
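Bcl-xL protein level by capillary WES immunoassay in HCT116 lysates, as % of untreated after cofilin normalization. Compound exposure was 24 h at 10 and 100 nM and/or a 9-point series, in quadruplicate. Four-parameter fitting gave the DC50.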

pIC50: −log10 of the molar value.

Usually pIC50 stands for the IC50 on a negative log10 scale, so that one unit is a factor of ten. The DC50 is the midpoint of the concentration-degradation curve.

T1 sequence (Q07817 whole entry): as above

For the compound `Cc1ncsc1-c1ccc(CNC(=O)[C@@H]2C[C@@H](O)CN2C(=O)[C@@H](NC(=O)C2(F)CC2)C(C)(C)C)c(OCC(=O)N2CCN(CCOC34CC5(C)CC(C)(CC(Cn6ncc(-c7ccc(N8CCCc9c8nnc(Nc8nc%10ccccc%10s8)c9C)nc7C(=O)O)c6C)(C5)C3)C4)CC2)c1` [Example 50, 6-(3-(benzo[d]thiazol-2-ylamino)-4-methyl-6,7-dihydropyrido [2,3-c]pyridazin-8(5H)-yl)-3-(1-(((1r,3s,5R,7S)-3-(2-(4-(2-(2-(((2S,4R)-1-((S)-2-(1-fluorocyclopropane-1-carboxamido)-3,3-dimethylbutanoyl)-4-hydroxypyrrolidine-2-carboxamido)methyl)-5-(4-methylthiazol-5-yl)phenoxy)acetyl)piperazin-1-yl)ethoxy)-5,7-dimethyladamantan-1-yl)methyl)-5-methyl-1H-pyrazol-4-yl)picolinic acid], the negative logarithm of the IC50 (pIC50) in the test on NCI-H1650 is 7.59; in the test with COR-L105 it was 6.54. The Emax in the test with NCI-H1650 turned out to be 93.8%; in the test on COR-L105 it was 90.2%. Besides, the remaining activity at 0.3 µM at endogenous BCL-xL was determined as 88%.

With `Cc1ncsc1-c1ccc([C@H](C)NC(=O)[C@@H]2C[C@@H](O)CN2C(=O)[C@@H](NC(=O)CCCCCC(=O)N2CCN(CC#Cc3ccc(OCCCc4sc(N5CCCc6c5nnc(Nc5nc7ccccc7s5)c6C)nc4C(=O)O)c(F)c3)CC2)C(C)(C)C)cc1` [Example 34, 2-(3-(benzo[d]thiazol-2-ylamino)-4-methyl-6,7-dihydropyrido [2,3-c]pyridazin-8(5H)-yl)-5-(3-(2-fluoro-4-(3-(4-(7-(((S)-1-((2S,4R)-4-hydroxy-2-(((S)-1-(4-(4-methylthiazol-5-yl)phenyl)ethyl)carbamoyl)pyrrolidin-1-yl)-3,3-dimethyl-1-oxobutan-2-yl)amino)-7-oxoheptanoyl)piperazin-1-yl)prop-1-yn-1-yl)phenoxy)propyl)thiazole-4-carboxylic acid], in the test on NCI-H1650, the pIC50 is 8.12 and the Emax was found to be 55.4%. In addition, in the test with COR-L105, the pIC50 is 7.13 and the Emax was determined as 82.7%. For the same compound, the remaining activity at 0.3 µM on endogenous BCL-xL worked out at 74.5%.

Take `Cc1ncsc1-c1ccc(CNC(=O)[C@@H]2C[C@@H](O)CN2C(=O)[C@@H](NC(=O)C2(F)CC2)C(C)(C)C)c(OCC(=O)NCCCCC(=O)N2CCN(CC#Cc3ccc(OCCCc4sc(N5CCCc6c5nnc(Nc5nc7ccccc7s5)c6C)nc4C(=O)O)c(F)c3)CC2)c1` [Example 44, 2-(3-(benzo[d]thiazol-2-ylamino)-4-methyl-6,7-dihydropyrido [2,3-c]pyridazin-8(5H)-yl)-5-(3-(2-fluoro-4-(3-(4-(5-(2-(2-(((2S,4R)-1-((S)-2-(1-fluorocyclopropane-1-carboxamido)-3,3-dimethylbutanoyl)-4-hydroxypyrrolidine-2-carboxamido)methyl)-5-(4-methylthiazol-5-yl)phenoxy)acetamido)pentanoyl)piperazin-1-yl)prop-1-yn-1-yl)phenoxy)propyl)thiazole-4-carboxylic acid]: the remaining activity at 0.3 µM at endogenous BCL-xL is 58.3%.

Turning to `Cc1ncsc1-c1ccc([C@H](C)NC(=O)[C@@H]2C[C@@H](O)CN2C(=O)[C@@H](NC(=O)CN(C)CC(=O)N2CCN(CC#Cc3ccc(OCCCc4sc(N5CCCc6c5nnc(Nc5nc7ccccc7s5)c6C)nc4C(=O)O)c(F)c3)CC2)C(C)(C)C)cc1` [Example 36, 2-(3-(benzo[d]thiazol-2-ylamino)-4-methyl-6,7-dihydropyrido [2,3-c]pyridazin-8(5H)-yl)-5-(3-(2-fluoro-4-(3-(4-(N-(2-(((S)-1-((2S,4R)-4-hydroxy-2-(((S)-1-(4-(4-methylthiazol-5-yl)phenyl)ethyl)carbamoyl)pyrrolidin-1-yl)-3,3-dimethyl-1-oxobutan-2-yl)amino)-2-oxoethyl)-N-methylglycyl)piperazin-1-yl)prop-1-yn-1-yl)phenoxy)propyl) thiazole-4-carboxylic acid], in the test with NCI-H1650, the pIC50 was 7.43 and the Emax turned out to be 68.3%. Moreover, in the test with COR-L105, the pIC50 was 6.53 and the Emax came out at 94.1%. Moreover, the remaining activity at 0.3 µM on endogenous BCL-xL was more than 90%.

Turning to `Cc1c(Nc2nc3ccccc3s2)nnc2c1CCCN2c1nc(C(=O)O)c(CCCOc2ccc(C#CCN3CCN(C(=O)CCCC(=O)NCCOCCNC(=O)COc4cccc5c4C(=O)N(C4CCC(=O)NC4=O)C5=O)CC3)cc2F)s1` (stereo not shown) [Example 26, 2-[3-(1,3-benzothiazol-2-ylamino)-4-methyl-6,7-dihydro-5H-pyrido[2,3-c]pyridazin-8-yl]-5-[3-[4-[3-[4-[5-[2-[2-[[2-[2-(2,6-dioxo-3-piperidyl)-1,3-dioxo-isoindolin-4-yl]oxyacetyl]amino]ethoxy]ethylamino]-5-oxo-pentanoyl]piperazin-1-yl]prop-1-ynyl]-2-fluoro-phenoxy]propyl]thiazole-4-carboxylic acid], the negative logarithm of the IC50 (pIC50) with MOLT-4 cells [1] was 7.68; in the test with MOLT-4 cells [2] it was 7.59; in the test on NCI-H1650 it was 7.25; in the test with COR-L105, 6.67. Also, the Emax in the test with NCI-H1650 came out at 70.1%; with COR-L105, 88%. The DC50 on Bcl-xL (HCT116, 24 h, 9-point serial dilution) is more than 0.316 µM. At Bcl-xL (HCT-116, HCT116, 10 nM, 24 h, % of untreated cells), the remaining activity at 0.01 µM was determined as 63%. Further, the remaining activity at 0.1 µM on Bcl-xL (HCT-116, HCT116, 100 nM, 24 h, % of untreated cells) came out at 51%.
